# Test results as given in ChEMBL document CHEMBL1201862, “PubChem BioAssay data set” (2004).
#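 Five concentrations, 48 hours, 96-well plates. GI50 is the concentration that inhibits growth by half.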 Active and inactive are the calls of the source. No stated cut-off is given here; in the data, active = GI50 up to about 1.1 µM and inactive = higher.
# What was measured:
# Assay in all cases: inhibition of tumour cell growth, NCI panel, 48 h
# [1] = test system: OVCAR-4
# [2] = test system: EKVX
# [3] = test system: A498
# [4] = test system: MCF7
# [5] = test system: SW-620
# [6] = test system: MDA-MB-435
# [7] = test system: SNB-78
# [8] = test system: XF498
# [9] = test system: DMS-273
# [10] = test system: MDA-N
# [11] = test system: M19-MEL
# [12] = test system: LXFL 529
# [13] = test system: CCRF-CEM
# [14] = test system: SR
# [15] = test system: KM-20L2
# [16] = test system: T47D
# [17] = test system: A549
# [18] = test system: K562
# [19] = test system: NCI-H23
# [20] = test system: DLD-1
Compound,GI50 [1],GI50 [2],GI50 [3],GI50 [4],GI50 [5],GI50 [6],GI50 [7],GI50 [8],GI50 [9],GI50 [10],GI50 [11],GI50 [12],GI50 [13],GI50 [14],GI50 [15],GI50 [16],GI50 [17],GI50 [18],GI50 [19],GI50 [20]
COc1c2c(nc3ccccc13)-c1cc3c(c(=O)n1C2)COC(=O)C3(O)CC(=O)N1CCOCC1 (stereo unspecified),46.1 µM (inactive),43.2 µM (inactive),13.2 µM (inactive),1.06 µM (active),5.4 µM (inactive),18.7 µM (inactive),32.4 µM (inactive),7.96 µM (inactive),1.11 µM (active),19.5 µM (inactive),5.58 µM (inactive),13.9 µM (inactive),0.164 µM (active),0.23 µM (active),15.4 µM (inactive),3.63 µM (inactive),10.5 µM (inactive),4.85 µM (inactive),1.75 µM (inactive),40.4 µM (inactive)
c1ccc2c(c1)nnn2CNc1ccc(N2CCOCC2)cc1,> 100 µM (inactive),> 100 µM (inactive),> 100 µM (inactive),,> 100 µM (inactive),,> 100 µM (inactive),> 100 µM (inactive),> 100 µM (inactive),,> 100 µM (inactive),> 100 µM (inactive),> 100 µM (inactive),43.3 µM (inactive),> 100 µM (inactive),,> 100 µM (inactive),> 100 µM (inactive),> 100 µM (inactive),> 100 µM (inactive)
O=C1NC2OCC(O)C(O1)C2O (stereo unspecified),> 100 µM (inactive),> 100 µM (inactive),> 100 µM (inactive),,> 100 µM (inactive),,> 100 µM (inactive),> 100 µM (inactive),> 100 µM (inactive),,> 100 µM (inactive),> 100 µM (inactive),> 100 µM (inactive),> 100 µM (inactive),> 100 µM (inactive),,,> 100 µM (inactive),> 100 µM (inactive),> 100 µM (inactive)
COc1ccc(OC)c(/C=C/NC=O)c1,> 100 µM (inactive),> 100 µM (inactive),> 100 µM (inactive),,> 54.5 µM (inactive),,> 100 µM (inactive),> 100 µM (inactive),> 100 µM (inactive),,> 100 µM (inactive),> 100 µM (inactive),> 100 µM (inactive),22 µM (inactive),> 100 µM (inactive),,> 100 µM (inactive),> 100 µM (inactive),> 100 µM (inactive),> 100 µM (inactive)
CN(C)CC1CCCC1=O (stereo unspecified),1.97 µM (inactive),1.71 µM (inactive),10.5 µM (inactive),0.408 µM (active),0.2 µM (active),4.39 µM (inactive),2.48 µM (inactive),0.687 µM (active),1.55 µM (inactive),,0.857 µM (active),0.41 µM (active),0.138 µM (active),0.0479 µM (active),1.67 µM (inactive),3.65 µM (inactive),24 µM (inactive),0.0632 µM (active),4.48 µM (inactive),0.195 µM (active)
C=C1C(=O)O[C@@H]2C[C@@]3(C)[C@H](O)CCC(=C)[C@@H]3C[C@H]12 [ASPERILIN],11.8 µM (inactive),16.1 µM (inactive),,,3.44 µM (inactive),,6.04 µM (inactive),2.59 µM (inactive),8.38 µM (inactive),,6.68 µM (inactive),2.75 µM (inactive),3.01 µM (inactive),3.14 µM (inactive),7.53 µM (inactive),,21.5 µM (inactive),2.39 µM (inactive),11.4 µM (inactive),3.69 µM (inactive)
